What was measured:
[1] = test system: greenhouse red spider mite (Tetranychus urticae sensitive); experiment: Tetranychus test, OP-resistant/dip treatment (TETRUR); assay type: in vivo; conditions: dip
Protocol: Tetranychus Test, OP-Resistant/Dip Treatment (TETRUR)
(§1) If addition of ammonium salts, penetrants or ammonium salts and penetrants is required, these are added by pipette in a concentration of 1000 ppm after dilution of the respective finished solution of the preparation.

[2] = test system: larvae of the mustard beetle (Phaedon cochleariae); experiment: Phaedon test (PHAECO spray treatment); conditions: application rate of 100 g/ha, Chinese cabbage discs
[3] = test system: Green peach aphid (Myzus persicae); experiment: Myzus persicae test (MYZUPE), dip treatment of cabbage leaves; assay type: in vivo; conditions: 100 ppm
Protocol: Myzus persicae Test (MYZUPE)
as §1
Cabbage leaves (Brassica oleracea) which are heavily infested by the Green peach aphid (Myzus persicae) are treated by being dipped into the active compound preparation of the desired concentration.
(§2) After the desired period of time, the kill in % is determined.

[4] = test system: Tetranychus urticae, resistant; experiment: Tetranychus urticae (TETRUR RAUS) spray test, resistant mites on bush bean plants; assay type: in vivo; conditions: concentration of 5 ppm, spraying
Protocol: Tetranychus urticae (TETRUR RAUS)
Bush bean plants (Phaseolus vulgaris) infested with a mixed population of resistant greenhouse red spider mites (Tetranychus urticae, resistant) are treated by spraying with the active compound preparation of the desired concentration.
as §2

[5] = test system: mixed thrips population (Frankliniella occidentalis); experiment: Frankliniella occidentalis (FRANOC spray treatment); assay type: in vivo; conditions: bean leaf disks
Protocol: Frankliniella occidentalis (FRANOC Spray Treatment)
If addition of ammonium salts is required, these are added by pipette in a concentration of 1000 ppm after dilution of the respective finished solution of the preparation.

[6] = Determination of the logP values by HPLC (EEC Directive 79/831 Annex V.A8); assay type: physicochemical; conditions: reversed-phase C18 HPLC column, reversed-phase C18, 43° C., acidic range (pH 2.3)
Protocol: Determination of the LogP Values The logP values given in the table were determined in accordance with EEC Directive 79/831 Annex V .A8 by HPLC (High Performance Liquid Chromatography) on a reversed-phase column (C18). Temperature: 43° C. Mobile phases for the determination in the acidic range (pH 2.3): 0.1% aqueous phosphoric acid, acetonitrile; linear gradient from 10% acetonitrile to 90% acetonitrile The calibration was carried out using unbranched alkan-2-ones (having 3 to 16 carbon atoms) with known logP values (determination of the logP values by the retention times using linear interpolation between two successive alkanones).

chromatographic logP [6] | SMILES | TETRUR % 7 d (effect in %) ([1]; 0.78125 ppm) [%] | TETRUR % 7 d (effect in %) ([1]; 1.5625 ppm) [%] | TETRUR % 7 d (effect in %) ([1]; 3.125 ppm) [%] | effect in % (beetle larvae killed) [2] [%] | MYZUPE % 6 d (kill in %) [3] [%] | kill in % [4] [%] | effect in % (thrips killed) ([5]; application rate of 100 g/ha) [%] | effect in % (thrips killed) ([5]; application rate of 500 g/ha) [%]
– | Cc1cc(C)c(C2=C(OC(=O)CC(C)(C)C)C3(CCCC3)OC2=O)c(C)c1 [spiromesifen, reference compound] | 0 | 30 | 50 | 33 | 30 | 30 | 0 | 0
4.45 | COC(C)(C)CC(=O)OC1=C(c2c(C)cc(C)cc2C)C(=O)OC12CCCC2 [Example I-5] | 30 | 50 | 90 | – | 55 | – | – | –
3.85 | Cc1cc(C)c(C2=C(OC(=O)CC3(C)OCCO3)C3(CCCC3)OC2=O)c(C)c1 [Example I-2] | – | – | – | 67 | – | – | 63 | –
– | CCC(C)(C)CC(=O)OC1=C(c2c(C)cc(C)cc2C)C(=O)OC12CCCC2 [Example I-3] | – | – | – | – | – | 97 | – | –
6.94 | Cc1cc(C)c(C2=C(OC(=O)CC34CC5CC(CC(C5)C3)C4)C3(CCCC3)OC2=O)c(C)c1 [Example I-1] | – | – | – | – | – | – | – | 80

Reference: patent publication US8247579B2, “Spirocyclic tetronic acid derivatives” (Bayer Cropscience AG, priority 2007, dated 2012)
